Source: patent US6355799B1, “Substituted benzene compounds, process for their preparation, and herbicidal and defoliant compositions containing them” (ISK Americas Incorporated, priority 1997, dated 2002)

What was measured:
Type in all cases: in vivo
[1] = test system: barnyardgrass (Echinochloa crus-galli, ECHCG); assay: Post-emerge test, greenhouse herbicide activity screening; settings: post-emerge, 14 days after application, rating scale 0-100
Summary of the method: (§1)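 Each test used a mechanized track sprayer delivering 187 l/ha of acetone solution at 15–1000 g ai/ha. Post-emerge foliage at 2–3 leaves was treated with added 0.25% v/v non-ionic surfactant and bottom-watered only. Injury was assessed on day 14, where 100 means total kill.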

[2] = test system: lambsquarters (Chenopodium album, CHEAL); assay: as above; settings: post-emerge, 14 days after application, rating scale 0-100
Summary of the method: as §1

[3] = test system: velvetleaf (Abutilon theophrasti, ABUTH); assay: as above; settings: post-emerge, 14 days after application, rating scale 0-100
Summary of the method: as §1

[4] = test system: johnsongrass (Sorghum halepense, SORHA); assay: as above; settings: post-emerge, 14 days after application, rating scale 0-100
Summary of the method: as §1

[5] = test system: ivyleaf morningglory (Ipomoea hederacea, IPOHE); assay: as above; settings: post-emerge, 14 days after application, rating scale 0-100
Summary of the method: as §1

[6] = test system: green foxtail (Setaria viridis, SETVI); assay: as above; settings: post-emerge, 14 days after application, rating scale 0-100
Summary of the method: as §1

[7] = test system: redroot pigweed (Amaranthus retroflexus, AMARE); assay: as above; settings: post-emerge, 14 days after application, rating scale 0-100
Summary of the method: as §1

[8] = test system: sicklepod (Cassia obtusifolia, CASOB); assay: as above; settings: post-emerge, 14 days after application, rating scale 0-100
Summary of the method: as §1

[9] = test system: large crabgrass (Digitaria sanguinalis, DIGSA); assay: as above; settings: post-emerge, 14 days after application, rating scale 0-100
Summary of the method: as §1

[10] = test system: upland rice (Oryza sp., var. Tebonnet, RICE); assay: Pre-emerge test, crop safety; settings: rated 14 days after application, 0 = no damage, 100 = complete death
Summary of the method: (§2)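 Visual ratings on a 0-100 scale (0 no damage, 100 all plants dead) were taken at 14 days after treatment. Rates of 15-1000 g ai/ha in acetone, 187 l/ha, were sprayed onto soil one day after planting (pre-emerge) or onto 2-3 leaf plants with 0.25% v/v surfactant (post-emerge).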

[11] = test system: field corn (Zea mays L., var. Dekalb 535, CORN); assay: Pre-emerge test, crop safety; settings: rated 14 days after application, 0 = no damage, 100 = complete death
Summary of the method: as §2

[12] = test system: upland rice (Oryza sp., var. Tebonnet, RICE); assay: Post-emerge test, crop safety; settings: post-emerge, 14 days after application, rating scale 0-100
Summary of the method: (§3)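 Compounds in acetone were track-sprayed at 187 l/ha, 15–1000 g ai/ha, onto sandy loam pots. Pre-emerge seeds were sown one day before spraying, with surface watering afterwards. Post-emerge plants were at the 2–3 leaf stage and sprayed with 0.25% v/v non-ionic surfactant. Injury was rated 0–100 at 14 days.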

[13] = test system: field corn (Zea mays L., var. Dekalb 535, CORN); assay: Post-emerge test, crop safety; settings: post-emerge, 14 days after application, rating scale 0-100
Summary of the method: as §3

[14] = test system: redroot pigweed (Amaranthus retroflexus, AMARE); assay: Pre-emerge test, greenhouse herbicide activity screening; settings: rated 14 days after application, 0 = no damage, 100 = complete death
Summary of the method: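 Herbicidal damage is scored 0 (none) to 100 (complete plant death) two weeks after a simulated field spray. Rates span 15–1000 g ai/ha, delivered in acetone at 187 l/ha. For post-emergence treatments, plants have 2–3 leaves and the spray carries 0.25% v/v non-ionic surfactant.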

[15] = test system: barnyardgrass (Echinochloa crus-galli, ECHCG); assay: as above; settings: rated 14 days after application, 0 = no damage, 100 = complete death
Summary of the method: as §3

[16] = test system: lambsquarters (Chenopodium album, CHEAL); assay: as above; settings: rated 14 days after application, 0 = no damage, 100 = complete death
Summary of the method: as §3

[17] = test system: velvetleaf (Abutilon theophrasti, ABUTH); assay: as above; settings: rated 14 days after application, 0 = no damage, 100 = complete death
Summary of the method: as §3

[18] = test system: johnsongrass (Sorghum halepense, SORHA); assay: as above; settings: rated 14 days after application, 0 = no damage, 100 = complete death
Summary of the method: as §3

[19] = test system: ivyleaf morningglory (Ipomoea hederacea, IPOHE); assay: as above; settings: rated 14 days after application, 0 = no damage, 100 = complete death
Summary of the method: as §3

[20] = test system: green foxtail (Setaria viridis, SETVI); assay: as above; settings: rated 14 days after application, 0 = no damage, 100 = complete death
Summary of the method: as §3

[21] = test system: sicklepod (Cassia obtusifolia, CASOB); assay: as above; settings: rated 14 days after application, 0 = no damage, 100 = complete death
Summary of the method: as §3

[22] = test system: large crabgrass (Digitaria sanguinalis, DIGSA); assay: as above; settings: rated 14 days after application, 0 = no damage, 100 = complete death
Summary of the method: as §3

Structure (SMILES): Cn1c(C(F)(F)F)cc(=O)n(-c2c(F)cc(Cl)c(OCC#N)c2NC(=O)CCc2ccccc2)c1=O [2-87]
- phytotoxicity rating ECHCG ([1]; 63 g ai/ha): 10
- phytotoxicity rating ECHCG ([1]; 250 g ai/ha): 50
- phytotoxicity rating CHEAL ([2]; 63 g ai/ha): 80
- phytotoxicity rating CHEAL ([2]; 250 g ai/ha): 90
- phytotoxicity rating ABUTH ([3]; 63 g ai/ha): 100
- phytotoxicity rating ABUTH ([3]; 250 g ai/ha): 100
- phytotoxicity rating SORHA ([4]; 63 g ai/ha): 10
- phytotoxicity rating SORHA ([4]; 250 g ai/ha): 50
- phytotoxicity rating IPOHE ([5]; 63 g ai/ha): 100
- phytotoxicity rating IPOHE ([5]; 250 g ai/ha): 100
- phytotoxicity rating SETVI ([6]; 63 g ai/ha): 30
- phytotoxicity rating SETVI ([6]; 250 g ai/ha): 40
- phytotoxicity rating AMARE ([7]; 63 g ai/ha): 100
- phytotoxicity rating AMARE ([7]; 250 g ai/ha): 100
- phytotoxicity rating CASOB ([8]; 63 g ai/ha): 40
- phytotoxicity rating CASOB ([8]; 250 g ai/ha): 100
- phytotoxicity rating DIGSA ([9]; 63 g ai/ha): 10
- phytotoxicity rating DIGSA ([9]; 250 g ai/ha): 50
- Pre-emerge phytotoxicity rating (0-100), crop damage, RICE ([10]; 63 g ai/ha): 40
- Pre-emerge phytotoxicity rating (0-100), crop damage, RICE ([10]; 250 g ai/ha): 90
- Pre-emerge phytotoxicity rating (0-100), crop damage, CORN ([11]; 63 g ai/ha): 5
- Pre-emerge phytotoxicity rating (0-100), crop damage, CORN ([11]; 250 g ai/ha): 75
- phytotoxicity rating RICE ([12]; 63 g ai/ha): 40
- phytotoxicity rating RICE ([12]; 250 g ai/ha): 75
- phytotoxicity rating CORN ([13]; 63 g ai/ha): 30
- phytotoxicity rating CORN ([13]; 250 g ai/ha): 80
- Pre-emerge Herbicidal Activity, phytotoxicity rating (0-100), AMARE ([14]; 63 g ai/ha): 100
- Pre-emerge Herbicidal Activity, phytotoxicity rating (0-100), AMARE ([14]; 250 g ai/ha): 100
- Pre-emerge Herbicidal Activity, phytotoxicity rating (0-100), ECHCG ([15]; 63 g ai/ha): 60
- Pre-emerge Herbicidal Activity, phytotoxicity rating (0-100), ECHCG ([15]; 250 g ai/ha): 90
- Pre-emerge Herbicidal Activity, phytotoxicity rating (0-100), CHEAL ([16]; 63 g ai/ha): 100
- Pre-emerge Herbicidal Activity, phytotoxicity rating (0-100), CHEAL ([16]; 250 g ai/ha): 100
- Pre-emerge Herbicidal Activity, phytotoxicity rating (0-100), ABUTH ([17]; 63 g ai/ha): 100
- Pre-emerge Herbicidal Activity, phytotoxicity rating (0-100), ABUTH ([17]; 250 g ai/ha): 100
- Pre-emerge Herbicidal Activity, phytotoxicity rating (0-100), SORHA ([18]; 63 g ai/ha): 50
- Pre-emerge Herbicidal Activity, phytotoxicity rating (0-100), SORHA ([18]; 250 g ai/ha): 85
- Pre-emerge Herbicidal Activity, phytotoxicity rating (0-100), IPOHE ([19]; 63 g ai/ha): 90
- Pre-emerge Herbicidal Activity, phytotoxicity rating (0-100), IPOHE ([19]; 250 g ai/ha): 100
- Pre-emerge Herbicidal Activity, phytotoxicity rating (0-100), SETVI ([20]; 63 g ai/ha): 90
- Pre-emerge Herbicidal Activity, phytotoxicity rating (0-100), SETVI ([20]; 250 g ai/ha): 100
- Pre-emerge Herbicidal Activity, phytotoxicity rating (0-100), CASOB ([21]; 63 g ai/ha): 100
- Pre-emerge Herbicidal Activity, phytotoxicity rating (0-100), CASOB ([21]; 250 g ai/ha): 100
- Pre-emerge Herbicidal Activity, phytotoxicity rating (0-100), DIGSA ([22]; 63 g ai/ha): 80
- Pre-emerge Herbicidal Activity, phytotoxicity rating (0-100), DIGSA ([22]; 250 g ai/ha): 100
